# Values of other authors as cited in PubChem BioAssay AID1259410 (Chemical Carcinogenesis Research Information System (CCRIS), 2018).
# Test system: rodent tumor promotion studies, tumor incidence
# Experiment: CCRIS tumor promotion studies
compound,measurement,setting,value
Clc1cc2c(cc1Cl)Oc1cc(Cl)c(Cl)cc1O2,outcome,"Carcinogen: 7,12-DIMETHYLBENZ(A)ANTHRACENE, Doses [Carcinogen]: 0.2 UMOL, Route [Carcinogen]: DERMAL, Route [Promoter]: DERMAL, Species: MOUSE, Strain/Sex: HRS/FEMALE",integumentary system (skin): papilloma
same,outcome,"Carcinogen: DIETHYLNITROSAMINE [55-18-5], Doses [Carcinogen]: 175 MG/KG BW ONCE AT 10 WK OF AGE (STUDY DURATION: 32 WK), Doses [Promoter]: 1750 NG/KG IN CORN OIL 1X/2 WK FOR 14 WK BEGINNING 18 WK POST CARCINOGEN DOSE (STUDY DURATION: 32 WK), Route [Carcinogen]: INTRAPERITONEAL, Route [Promoter]: GAVAGE, Species: RAT, Strain/Sex: SPRAGUE-DAWLEY/FEMALE",ovary: tumor
same,outcome,"Carcinogen: DIETHYLNITROSAMINE [55-18-5], Doses [Carcinogen]: 175 MG/KG BW ONCE AT 10 WK OF AGE (STUDY DURATION: 32 WK), Doses [Promoter]: 1750 NG/KG IN CORN OIL 1X/2 WK FOR 30 WK BEGINNING 2 WK POST CARCINOGEN DOSE (STUDY DURATION: 32 WK), Route [Carcinogen]: INTRAPERITONEAL, Route [Promoter]: GAVAGE, Species: RAT, Strain/Sex: SPRAGUE-DAWLEY/FEMALE",ovary: tumor
same,outcome,"Carcinogen: DIETHYLNITROSAMINE [55-18-5], Doses [Carcinogen]: 175 MG/KG BW ONCE AT 10 WK OF AGE (STUDY DURATION: 48 WK), Doses [Promoter]: 1750 NG/KG IN CORN OIL 1X/2 WK FOR 30 WK BEGINNING 2 WK POST CARCINOGEN DOSE (STUDY DURATION: 48 WK), Route [Carcinogen]: INTRAPERITONEAL, Route [Promoter]: GAVAGE, Species: RAT, Strain/Sex: SPRAGUE-DAWLEY/FEMALE",ovary: tumor
same,outcome,"Carcinogen: DIETHYLNITROSAMINE [55-18-5], Doses [Carcinogen]: 175 MG/KG BW ONCE AT 10 WK OF AGE (STUDY DURATION: 48 WK), Doses [Promoter]: 1750 NG/KG IN CORN OIL 1X/2 WK FOR 30 WK BEGINNING 18 WK POST CARCINOGEN DOSE (STUDY DURATION: 48 WK), Route [Carcinogen]: INTRAPERITONEAL, Route [Promoter]: GAVAGE, Species: RAT, Strain/Sex: SPRAGUE-DAWLEY/FEMALE",ovary: tumor
same,outcome,"Carcinogen: DIETHYLNITROSAMINE [55-18-5], Doses [Carcinogen]: 175 MG/KG BW ONCE AT 10 WK OF AGE (STUDY DURATION: 54 WK), Doses [Promoter]: 1750 NG/KG IN CORN OIL 1X/2 WK FOR 30 WK BEGINNING 18 WK POST CARCINOGEN DOSE (STUDY DURATION: 54 WK), Route [Carcinogen]: INTRAPERITONEAL, Route [Promoter]: GAVAGE, Species: RAT, Strain/Sex: SPRAGUE-DAWLEY/FEMALE",ovary: tumor
same,outcome,"Carcinogen: DIETHYLNITROSAMINE [55-18-5], Doses [Carcinogen]: 175 MG/KG BW ONCE AT 10 WK OF AGE (STUDY DURATION: 62 WK), Doses [Promoter]: 1750 NG/KG IN CORN OIL 1X/2 WK FOR 30 WK BEGINNING 2 WK POST CARCINOGEN DOSE (STUDY DURATION: 62 WK), Route [Carcinogen]: INTRAPERITONEAL, Route [Promoter]: GAVAGE, Species: RAT, Strain/Sex: SPRAGUE-DAWLEY/FEMALE",ovary: tumor
same,outcome,"Carcinogen: DIETHYLNITROSAMINE [55-18-5], Doses [Carcinogen]: 175 MG/KG BW ONCE AT 10 WK OF AGE (STUDY DURATION: 62 WK), Doses [Promoter]: 1750 NG/KG IN CORN OIL 1X/2 WK FOR 60 WK BEGINNING 2 WK POST CARCINOGEN DOSE (STUDY DURATION: 62 WK), Route [Carcinogen]: INTRAPERITONEAL, Route [Promoter]: GAVAGE, Species: RAT, Strain/Sex: SPRAGUE-DAWLEY/FEMALE",ovary: tumor
same,outcome,"Carcinogen: DIETHYLNITROSAMINE, 55-18-5, Doses [Carcinogen]: 10 MG/KG ONCE, Doses [Promoter]: 0, 150 PPT IN DIET FOR DURATION OF STUDY BEGINNING 30 D POST CARCINOGEN DOSE (STUDY DURATION: 450 D), Route [Carcinogen]: INTRAPERITONEAL, Route [Promoter]: ORAL, Species: RAT, Strain/Sex: SPRAGUE-DAWLEY/FEMALE",liver: adenoma or carcinoma
same,outcome,"Carcinogen: DIETHYLNITROSAMINE, 55-18-5, Doses [Carcinogen]: 90 MG/KG BW ONCE, Doses [Promoter]: 0, 0.5 UG/KG 1/WK FOR 20 WK BEGINNING 3 WK POST CARCINOGEN DOSE (STUDY DURATION: 47 WK), Route [Carcinogen]: INTRAPERITONEAL, Route [Promoter]: INTRAPERITONEAL, Species: MOUSE, Strain/Sex: B6D2F1/MALE",liver: tumor
same,outcome,"Carcinogen: N-NITROSODIMETHYLAMINE, 62-75-7, Doses [Carcinogen]: 25 MG/KG ONCE AT 5 WK OF AGE, Doses [Promoter]: 0, 0.05 UG/KG/WK FOR 20 WK BEGINNING 3 WK POST CARCINOGEN DOSE (STUDY DURATION: 52 WK), Route [Carcinogen]: INTRAPERITONEAL, Route [Promoter]: INTRAPERITONEAL, Species: MOUSE, Strain/Sex: SWISS/MALE",lung: tumor
same,outcome,"Carcinogen: N-NITROSODIMETHYLAMINE, 62-75-7, Doses [Carcinogen]: 25 MG/KG ONCE AT 5 WK OF AGE, Doses [Promoter]: 0, 1.6 UG/KG ONCE 3 WK POST CARCINOGEN DOSE (STUDY DURATION: 52 WK), Route [Carcinogen]: INTRAPERITONEAL, Route [Promoter]: INTRAPERITONEAL, Species: MOUSE, Strain/Sex: SWISS/MALE",lung: tumor
same,outcome,"Doses [Carcinogen]: 5 UMOL IN 50 µL ACETONE, Doses [Promoter]: 3.75, 7.5, 15, 30 NG 2/WK, Doses [Promoter]: 3.75, 7.5, 15, 30 NG 2/WK, Route [Carcinogen]: DERMAL, Route [Promoter]: DERMAL, Species: MOUSE, Strain/Sex: HRS/FEMALE",integumentary system (skin): papilloma
C[S-].C[S-].N#[O+].N#[O+].N#[O+].N#[O+].[Fe].[Fe],outcome,"Carcinogen: 7,12-DIMETHYLBENZ[A]ANTHRACENE, 57-97-6, Doses [Carcinogen]: 100 NMOL IN 0.2 ML ACETONE ONCE, Doses [Promoter]: 300 NMOL 2/WK FOR 37 WK (STUDY DURATION: 37 WK), Route [Carcinogen]: DERMAL, Route [Promoter]: DERMAL, Species: MOUSE, Strain/Sex: BALB/FEMALE",skin: papilloma or carcinoma
same,outcome,"Carcinogen: 7,12-DIMETHYLBENZ[A]ANTHRACENE, 57-97-6, Doses [Carcinogen]: 100 NMOL IN 0.2 ML ACETONE ONCE, Doses [Promoter]: 450 NMOL 2/WK FOR 37 WK (STUDY DURATION: 37 WK), Route [Carcinogen]: DERMAL, Route [Promoter]: DERMAL, Species: MOUSE, Strain/Sex: BALB/FEMALE",skin: papilloma or carcinoma
same,outcome,"Carcinogen: DIETHYLNITROSAMINE, 55-18-5, Doses [Carcinogen]: 25 MG/WK FOR 2 WK, Doses [Promoter]: 6 MG 2/WK FOR 114-669 D BEGINNING 2 WK POST LAST CARCINOGEN DOSE (STUDY DURATION: 669 D), Route [Carcinogen]: GAVAGE, Route [Promoter]: GAVAGE, Species: RAT, Strain/Sex: WISTAR",forestomach: papilloma
[O-][Br+2]([O-])O,outcome,"Carcinogen: 7,12-Dimethylbenz[a]anthracene, 57-97-6, Doses [Carcinogen]: 20 nmole as a single topical application, Doses [Promoter]: 0, 40 mg/ml on skin for 51 wk (study duration: 51 wk), Route [Carcinogen]: Dermal, Route [Promoter]: Dermal, Species: Mouse, Strain/Sex: Sencar/Female (20/group)",skin: negative as both a complete carcinogen and as a promoter
same,outcome,"Carcinogen: N-ETHYL-N-HYDROXYETHYLNITROSAMINE, 13147-25-6, Doses [Carcinogen]: 500 PPM IN DRINKING WATER FOR 2 WK, Doses [Promoter]: 0, 500 PPM IN DRINKING WATER BEGINNING POST CARCINOGEN TREATMENT AND CONTINUING FOR 24 WK (STUDY DURATION: 26 WK), Route [Carcinogen]: ORAL, Route [Promoter]: ORAL, Species: RAT, Strain/Sex: F344/MALE",kidney: tumors
same,outcome,"Carcinogen: N-Ethyl-N-hydroxyethylnitrosamine, 13147-25-6, Doses [Carcinogen]: 0.05% in drinking water for 2 wk, Doses [Promoter]: 0, 500 ppm in drinking water beginning post carcinogen treatment and continuing for 30 wk (study duration: 32 wk), Route [Carcinogen]: Oral, Route [Promoter]: Oral, Species: Rat, Strain/Sex: F344/Female (15/group)",kidney: renal cell tumors
same,outcome,"Carcinogen: N-Ethyl-N-hydroxyethylnitrosamine, 13147-25-6, Doses [Carcinogen]: 500 ppm in drinking water for 2 wk, Doses [Promoter]: 0, 15, 30, 60, 125, 250, 500 ppm in drinking water beginning post carcinogen treatment and continuing for 24 wk (study d, Doses [Promoter]: 0, 15, 30, 60, 125, 250, 500 ppm in drinking water beginning post carcinogen treatment and continuing for 24 wk (study d, Route [Carcinogen]: Oral, Route [Promoter]: Oral, Species: Rat, Strain/Sex: F344/Male (15/group)",kidney: renal cell tumors
CCC(CC)C(=O)NC(N)=O,outcome,"Carcinogen: N-NITROSODIETHYLAMINE, 55-18-5, Doses [Carcinogen]: 75 MG IN STERILE SALINE ONCE, Doses [Promoter]: 0, 341 PPM IN DIET BEGINNING 2 WK POST CARCINOGEN DOSE AND CONTINUING FOR DURATION OF STUDY (STUDY DURATION: 78 WK), Route [Carcinogen]: INTRAPERITONEAL, Route [Promoter]: ORAL, Species: RAT, Strain/Sex: F344/MALE",liver: hepatocellular adenoma; kidney: renal tubular cell adenoma or carcinoma
O=C(O)/C=C/c1ccc(O)c(O)c1,outcome,"Carcinogen: DIETHYLNITROSAMINE, 55-18-5, N-METHYLNITROSOUREA, 684-93-5, 1,2-DIMETHYLHYDRAZINE, 540-73-8, N-BUTYL-N-(4-HYDROXYBUTYL)N, Carcinogen: DIETHYLNITROSAMINE, 55-18-5, N-METHYLNITROSOUREA, 684-93-5, 1,2-DIMETHYLHYDRAZINE, 540-73-8, N-BUTYL-N-(4-HYDROXYBUTYL)N, Doses [Carcinogen]: 100 MG/KG BW DEN ONCE FOLLOWED BY 20 MG/KG BW MNU 2/WK FOR 2 WK THEN 40 MG/KG BW DMH 2/WK FOR THE NEXT 2WK, 0.05% BBN IN, Doses [Promoter]: 0, 0.4% IN DIET FOR 24 WK BEGINNING POST CARCINOGEN TREATMENT (STUDY DURATION: 28 WK), Route [Carcinogen]: INTRAPERITONEAL, INTRAPERITONEAL, SUBCUTANEOUS, ORAL, Route [Carcinogen]: INTRAPERITONEAL, INTRAPERITONEAL, SUBCUTANEOUS, ORAL, Route [Promoter]: ORAL, Species: RAT, Strain/Sex: F344/MALE",forestomach: papilloma
same,outcome,"Carcinogen: N-METHYL-N'-NITRO-N-NITROSOGUANIDINE, 70-25-7, Doses [Carcinogen]: 150 MG/KG BW IN 50% DMSO ONCE, Doses [Promoter]: 1% IN DIET BEGINNING 1 WK POST CARCINOGEN TREATMENT FOR 51 WK (STUDY DURATION: 52 WK), Route [Carcinogen]: GAVAGE, Route [Promoter]: ORAL, Species: RAT, Strain/Sex: F344/MALE","forestomach: papilloma, squamous cell carcinoma"
